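Where inhibition never reached the appropriate level, the endpoint shown equals the highest concentration tested. Otherwise, values were interpolated linearly from a five-concentration, 48-hour dose response in 96-well plates. TGI is the concentration that stops growth completely.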
Columns and labels:
Experiment in all cases: NCI-60 cell line screen, 48 h
COLO 205 colon = test system: COLO 205 colon
HS 578T breast = test system: HS 578T breast
LOX IMVI melanoma = test system: LOX IMVI melanoma
M14 melanoma = test system: M14 melanoma
MDA-MB-435 = test system: MDA-MB-435
NCI-H226 lung = test system: NCI-H226 lung
NCI-H522 lung = test system: NCI-H522 lung
OVCAR-3 ovarian = test system: OVCAR-3 ovarian
OVCAR-5 ovarian = test system: OVCAR-5 ovarian
SK-MEL-5 melanoma = test system: SK-MEL-5 melanoma
SW-620 colon = test system: SW-620 colon

Row | Structure (SMILES) | TGI (COLO 205 colon) [µM] | TGI (HS 578T breast) [µM] | TGI (LOX IMVI melanoma) [µM] | TGI (M14 melanoma) [µM] | TGI (MDA-MB-435) [µM] | TGI (NCI-H226 lung) [µM] | TGI (NCI-H522 lung) [µM] | TGI (OVCAR-3 ovarian) [µM] | TGI (OVCAR-5 ovarian) [µM] | TGI (SK-MEL-5 melanoma) [µM] | TGI (SW-620 colon) [µM]
1 | C[C@H]1COC2=C1C(=O)C(=O)c1c2ccc2c1CCCC2(C)C | 4.19 | 9.55 | 14.4 | 3.15 | 2.74 | 24.1 | 12.3 | 5.92 | > 91.4 | 1.43 | 34.5
2 | CCC[C@@H]1C(=O)N=C(N)N1C(=O)OCc1ccccc1 | > 100 | > 100 | > 100 | – | > 100 | > 100 | > 100 | > 100 | > 100 | > 100 | > 100
3 | Oc1cc(Br)cc2cc(Cl)cnc12 | > 54.9 | 12.1 | > 26.5 | 10.4 | > 67.7 | 64.4 | 10.6 | 11.2 | > 100 | 15.4 | > 46.2
4 | Cc1c(C(=O)O)n2cnnc2c2ccccc12 | > 100 | > 100 | > 100 | > 100 | > 100 | > 100 | > 100 | > 100 | > 100 | > 100 | > 100
5 | CCOC(=O)C(NC(=O)OC(C)(C)C)C(=O)OCC | > 100 | > 100 | – | – | > 100 | – | > 100 | – | > 100 | > 100 | > 100
6 | OC(CC(O)(C(F)(F)F)C(F)(F)F)c1ccc(C(O)CC(O)(C(F)(F)F)C(F)(F)F)cc1 (stereo not drawn) | – | 47.7 | 30.7 | 29.9 | 32.7 | – | 40.5 | 18.2 | 31.1 | 27.3 | 35.8
7 | CN1CCN(C2=CC(=O)c3c(O)ccc(O)c3C2=O)CC1 | 0.31 | 4.1 | 1.79 | 1.94 | 0.332 | 2.96 | 3.17 | 0.611 | – | 0.325 | 1.89
8 | Cc1ccc(-n2cc([Si](C)(C)C)nn2)s1 | > 100 | > 100 | > 100 | > 100 | > 100 | > 100 | > 100 | > 100 | > 100 | > 100 | > 100
9 | CCC(NC1=NCCO1)c1cccs1 (stereo not drawn) | 34.9 | 26.4 | 66.7 | 33.3 | 27.6 | 37.1 | 35.6 | 30.6 | 30.7 | 30.6 | > 100
10 | O=C1C(=Cc2ccc(Cl)c(Cl)c2)C([O-])=C([P+](c2ccccc2)(c2ccccc2)c2ccccc2)C([O-])=C1[P+](c1ccccc1)(c1ccccc1)c1ccccc1 | 3.28 | 12.7 | 2.67 | 6.66 | 5.59 | 7.14 | 4.1 | 3.74 | 12.6 | 5.24 | 6.75
11 | Fc1cc(-c2cc(-c3ccc4c(c3)OCO4)n[nH]2)c(Cl)cc1Cl | > 23.4 | > 45.4 | 8.49 | 18.3 | 30.9 | 5.7 | 14.6 | 5.33 | 13.7 | 21 | 28.9
12 | [N-]=[N+]=Nc1c([N+](=O)[O-])c(=O)n2c3c(cccc13)CCC2 | 20.9 | > 77.3 | 28.9 | 26.2 | 31.2 | 51.9 | 4.58 | 32.5 | 30.2 | 30.3 | 13.9
13 | OC1C[C@H](c2ccccc2)C2(C(O)c3ccccc3C2O)[C@@H](c2ccccc2)C1 (stereo partly drawn) | > 100 | > 100 | > 100 | > 100 | > 100 | > 100 | > 100 | > 100 | > 100 | > 100 | > 100
14 | N#CC(C#N)=C1C(=O)NC(N)=C1C#N | > 100 | > 100 | > 100 | > 100 | > 100 | > 100 | > 100 | – | > 100 | > 100 | > 100
15 | COc1ccc(Nc2nc(N)c(C(=O)c3cccs3)s2)cc1 | 21.6 | > 61.9 | > 100 | 34.6 | 22.8 | 19.2 | > 100 | > 32.4 | > 79.7 | 12.8 | > 100
16 | CCN1CCC(O)(/C=C/c2ccc(C(C)C)cc2)C(C(=O)/C=C/c2ccc(C(C)C)cc2)C1 (stereo not drawn) | 5.11 | 5.68 | 3.38 | > 40.5 | 8.99 | 9.06 | 4.21 | 11.7 | 12 | 12.7 | 7.25
17 | O=C(O)Cn1cc([N+](=O)[O-])c(=O)c2ccccc21 | 33.7 | > 100 | – | > 100 | > 100 | > 100 | > 100 | > 100 | > 100 | > 100 | > 100
18 | CCOC(=O)[C@@H]1ON2OC(OC3CCCC3(c3ccccc3)c3ccccc3)C(OC(C)=O)[C@H]3OC(=O)[C@@H]1C32 (stereo partly drawn) | > 100 | > 100 | 60.3 | > 100 | > 100 | > 100 | 72.2 | > 100 | – | > 100 | > 100
19 | Cc1ccc(N=C2C(=Nc3ccc(C)cc3)N(c3ccc(C)cc3)C(=S)N2C(=O)c2ccccc2)cc1 | > 100 | > 100 | – | > 100 | > 100 | > 100 | > 100 | > 100 | > 100 | > 100 | > 100
20 | CCOC(=O)/C=C(\C(=O)OCC)n1ccc(=O)[nH]c1=O | 8.24 | 99.8 | 28.7 | 31.4 | 38 | > 39.1 | 2.12 | 26.1 | 34.8 | > 56.7 | 7.85

Source: PubChem BioAssay (NCI)
